Reference: the CheMixHub viscosity set
Values joined by “and” are separate entries in the source; they are usually repeats but may differ in a detail not shown here. Equal values may be shown once. ± gives the uncertainty stated by the source.

Experiment: xn = mol fraction of the nth substance listed

CC(C)C1CCCCC1 + CCCCCCCCCCCCC
viscosity [mPa·s], 100 kPa
Conditions | x1 = 0.1077 | x1 = 0.1971 | x1 = 0.3025 | x1 = 0.3985 | x1 = 0.5016 | x1 = 0.5996 | x1 = 0.695 | x1 = 0.799 | x1 = 0.8956
293.15 K | 1.773 ± 0.038 | 1.7 ± 0.037 | 1.619 ± 0.035 | 1.549 ± 0.033 | 1.473 ± 0.032 | 1.4 ± 0.03 | 1.328 ± 0.028 | 1.253 ± 0.027 | 1.18 ± 0.025
298.15 K | 1.615 ± 0.035 | 1.551 ± 0.033 | 1.48 ± 0.032 | 1.419 ± 0.03 | 1.351 ± 0.029 | 1.287 ± 0.028 | 1.224 ± 0.026 | 1.158 ± 0.025 | 1.094 ± 0.023
303.15 K | 1.476 ± 0.032 | 1.421 ± 0.031 | 1.358 ± 0.029 | 1.304 ± 0.028 | 1.245 ± 0.027 | 1.188 ± 0.025 | 1.134 ± 0.024 | 1.075 ± 0.023 | 1.017 ± 0.022
308.15 K | 1.356 ± 0.029 | 1.308 ± 0.028 | 1.253 ± 0.027 | 1.205 ± 0.026 | 1.153 ± 0.025 | 1.103 ± 0.024 | 1.055 ± 0.023 | 1.003 ± 0.021 | 0.95 ± 0.02
313.15 K | 1.251 ± 0.027 | 1.209 ± 0.026 | 1.16 ± 0.025 | 1.118 ± 0.024 | 1.072 ± 0.023 | 1.028 ± 0.022 | 0.984 ± 0.021 | 0.938 ± 0.02 | 0.889 ± 0.019
318.15 K | 1.16 ± 0.025 | 1.123 ± 0.024 | 1.078 ± 0.023 | 1.041 ± 0.022 | 1 ± 0.021 | 0.961 ± 0.021 | 0.922 ± 0.02 | 0.88 ± 0.019 | 0.836 ± 0.018
323.15 K | 1.078 ± 0.023 | 1.045 ± 0.023 | 1.005 ± 0.022 | 0.972 ± 0.021 | 0.935 ± 0.02 | 0.9 ± 0.019 | 0.865 ± 0.018 | 0.827 ± 0.018 | 0.787 ± 0.017

CC(Cl)(Cl)Cl + CCCO
298.15 K, 101 kPa
Conditions | viscosity [mPa·s]
x1 = 0.0572 | 1.789 ± 0.014
x1 = 0.1154 | 1.667 ± 0.013
x1 = 0.193 | 1.506 ± 0.012
x1 = 0.3007 | 1.318 ± 0.011
x1 = 0.3956 | 1.165 ± 0.01
x1 = 0.49 | 1.045 ± 0.009
x1 = 0.6367 | 0.909 ± 0.009
x1 = 0.7983 | 0.824 ± 0.008
x1 = 0.8861 | 0.799 ± 0.008

CC(Cl)(Cl)Cl + C1CCOC1
303.15 K, 101 kPa
Conditions | viscosity [mPa·s]
x2 = 0.0731 | 0.7289 ± 0.006
x2 = 0.1213 | 0.7262 ± 0.0059
x2 = 0.2262 | 0.7112 ± 0.0058
x2 = 0.3894 | 0.6687 ± 0.0055
x2 = 0.4716 | 0.6424 ± 0.0053
x2 = 0.5677 | 0.6104 ± 0.0051
x2 = 0.6475 | 0.5834 ± 0.0049
x2 = 0.7415 | 0.5513 ± 0.0047
x2 = 0.8139 | 0.5271 ± 0.0045
x2 = 0.866 | 0.51 ± 0.0044

CC(Cl)(Cl)Cl + CCCOCCC
298.15 K, 101.33 kPa
Conditions | viscosity [mPa·s]
x1 = 0.101 | 0.4245 ± 0.0046
x1 = 0.198 | 0.4478 ± 0.0048
x1 = 0.299 | 0.4745 ± 0.0051
x1 = 0.398 | 0.5036 ± 0.0053
x1 = 0.5 | 0.5365 ± 0.0056
x1 = 0.601 | 0.5733 ± 0.0059
x1 = 0.7 | 0.6147 ± 0.0063
x1 = 0.8 | 0.6632 ± 0.0067
x1 = 0.85 | 0.6907 ± 0.007

CNC[C@H](O)c1cccc(O)c1.Cl + CO
viscosity [mPa·s], 100 kPa
Conditions | 293.15 K | 298.15 K | 303.15 K | 308.15 K | 313.15 K | 318.15 K | 323.15 K
x1 = 0.00048 | 0.6061 ± 0.0073 | 0.5699 ± 0.0072 | 0.5374 ± 0.0071 | 0.4992 ± 0.007 | 0.4719 ± 0.0069 | 0.4428 ± 0.0068 | 0.4161 ± 0.0067
x1 = 0.00096 | 0.6213 ± 0.0073 | 0.5836 ± 0.0072 | 0.5482 ± 0.0071 | 0.5108 ± 0.007 | 0.4839 ± 0.0069 | 0.4485 ± 0.0068 | 0.4228 ± 0.0067
x1 = 0.00144 | 0.6373 ± 0.0074 | 0.593 ± 0.0073 | 0.5581 ± 0.0071 | 0.5213 ± 0.007 | 0.4935 ± 0.0069 | 0.4539 ± 0.0068 | 0.4302 ± 0.0068
x1 = 0.00192 | 0.6534 ± 0.0074 | 0.6059 ± 0.0073 | 0.5687 ± 0.0072 | 0.5404 ± 0.0071 | 0.5059 ± 0.007 | 0.466 ± 0.0069 | 0.433 ± 0.0068
x1 = 0.0024 | 0.6642 ± 0.0075 | 0.6216 ± 0.0073 | 0.5828 ± 0.0072 | 0.5593 ± 0.0071 | 0.5182 ± 0.007 | 0.4782 ± 0.0069 | 0.4357 ± 0.0068

CC(Cl)(Cl)Cl + C[N+](=O)[O-]
298.15 K, 101.33 kPa
Conditions | viscosity [mPa·s]
x1 = 0.101 | 0.6114 ± 0.0062
x1 = 0.201 | 0.6128 ± 0.0062
x1 = 0.251 | 0.6165 ± 0.0062
x1 = 0.301 | 0.622 ± 0.0063
x1 = 0.351 | 0.6284 ± 0.0063
x1 = 0.4 | 0.6356 ± 0.0064
x1 = 0.451 | 0.6435 ± 0.0065
x1 = 0.5 | 0.6518 ± 0.0065
x1 = 0.55 | 0.6607 ± 0.0066
x1 = 0.551 | 0.6609 ± 0.0066
x1 = 0.6 | 0.6702 ± 0.0067
x1 = 0.65 | 0.6803 ± 0.0068
x1 = 0.651 | 0.6805 ± 0.0068
x1 = 0.7 | 0.6912 ± 0.0069
x1 = 0.749 | 0.703 ± 0.007
x1 = 0.812 | 0.7202 ± 0.0071
x1 = 0.867 | 0.7375 ± 0.0073

O=C(O)CC(O)(CC(=O)O)C(=O)O + O
viscosity [mPa·s]
Conditions | 293.15 K | 298.15 K | 303.15 K | 308.15 K | 313.15 K
100 kPa, x1 = 0.002 | – | 0.9112 ± 0.037 | 0.8258 ± 0.033 | 0.7481 ± 0.03 | 0.6742 ± 0.027
101.3 kPa, x1 = 0.00018 | 1.016 ± 0.06 | 0.908 ± 0.06 | 0.815 ± 0.06 | 0.737 ± 0.06 | 0.701 ± 0.06
101.3 kPa, x1 = 0.0003607 | 1.025 ± 0.06 | 0.917 ± 0.06 | 0.822 ± 0.06 | 0.741 ± 0.06 | 0.675 ± 0.06
101.3 kPa, x1 = 0.0005403 | 1.031 ± 0.06 | 0.922 ± 0.06 | 0.825 ± 0.06 | 0.747 ± 0.06 | 0.679 ± 0.06

CC(Cl)(Cl)Cl + CC(C)CCO
298.15 K, 101 kPa
Conditions | viscosity [mPa·s]
x1 = 0.113 | 3.084 ± 0.023
x1 = 0.1681 | 2.72 ± 0.021
x1 = 0.3013 | 2.01 ± 0.016
x1 = 0.3885 | 1.663 ± 0.013
x1 = 0.509 | 1.339 ± 0.011
x1 = 0.5929 | 1.169 ± 0.01
x1 = 0.692 | 1.035 ± 0.009
x1 = 0.7926 | 0.913 ± 0.009
x1 = 0.8991 | 0.817 ± 0.008

O=CC(Br)(Br)Br + CCCCO
viscosity [mPa·s], 101.33 kPa
Conditions | x1 = 0.1 | x1 = 0.2 | x1 = 0.3 | x1 = 0.4 | x1 = 0.5 | x1 = 0.6 | x1 = 0.7 | x1 = 0.797 | x1 = 0.899
293.15 K | 4.71 ± 0.06 | 6.92 ± 0.09 | 10.15 ± 0.13 | 15.97 ± 0.21 | 22.38 ± 0.28 | 21.27 ± 0.27 | 15.08 ± 0.2 | 11.21 ± 0.15 | 9.11 ± 0.12
313.15 K | 2.56 ± 0.04 | 3.84 ± 0.06 | 4.96 ± 0.08 | 7.06 ± 0.12 | 8.81 ± 0.18 | 8.39 ± 0.17 | 6.2 ± 0.11 | 4.97 ± 0.09 | 4.21 ± 0.07

NS(=O)(=O)c1cc(C(=O)O)c(NCc2ccco2)cc1Cl + O
viscosity, 101 kPa
Conditions | 293.15 K | 298.15 K | 303.15 K | 308.15 K | 313.15 K
x1 = 2e-05 | 1.009 ± 0.021 mPa·s | 0.8969 ± 0.021 mPa·s and 0.8925 ± 0.021 mPa·s | 0.8057 ± 0.021 mPa·s and 0.8013 ± 0.021 mPa·s | 0.7295 ± 0.021 mPa·s and 0.7245 ± 0.021 mPa·s | 0.6618 ± 0.021 mPa·s and 0.6566 ± 0.021 mPa·s
x1 = 9e-05 | 1.017 ± 0.021 mPa·s and 1.02 ± 0.021 mPa·s | 0.9018 ± 0.021 mPa·s and 0.9048 ± 0.021 mPa·s | 0.81 ± 0.021 mPa·s and 0.8104 ± 0.021 mPa·s | 0.7336 ± 0.021 mPa·s and 0.7368 ± 0.021 mPa·s | 0.6659 ± 0.021 mPa·s
x1 = 0.0002 | 1.022 ± 0.021 mPa·s and 1.018 ± 0.021 mPa·s | 0.9069 ± 0.021 mPa·s and 0.9052 ± 0.021 mPa·s | 0.8174 ± 0.021 mPa·s and 0.8126 ± 0.021 mPa·s | 0.7401 ± 0.021 mPa·s and 0.7333 ± 0.021 mPa·s | 0.6718 ± 0.021 mPa·s and 0.6662 ± 0.021 mPa·s
